Laboratory results as given in patent publication US20260242419A1, “A CYCLIC PEPTIDE FOR TRAPPING INTERLEUKIN-1 BETA” (Merck Sharp & Dohme LLC, priority 2023, published 2026).
Where two headings read alike, the source gives them in different places. Starred links: 1 amine or outer side, 2 acyl side, 3 side chain; linkers in the order of their positions; H or OH if unused. Non-standard residues stand in square brackets, D forms with d. Residues, ends and D or L forms follow the SMILES beside them. Phe(4-(trans-4-COOH-cHex)) = N[C@@H](Cc1ccc([C@H]2CC[C@H](C(=O)O)CC2)cc1)C(=O)O; Phe(4-(5-CO2H-2-pyrimidyl)) = N[C@@H](Cc1ccc(-c2ncc(C(=O)O)cn2)cc1)C(=O)O; dPro(4R-(4-pyridylmethyl)) = O=C(O)[C@H]1C[C@@H](Cc2ccncc2)CN1; Trp(βS-Me,4-F) = C[C@@H](c1c[nH]c2cccc(F)c12)[C@H](N)C(=O)O; 3Aminoazetidine3carboxyl = O=C(C1(N[*:1])CN([*:3])C1)[*:2]; Bip(4'-COOH) = N[C@@H](Cc1ccc(-c2ccc(C(=O)O)cc2)cc1)C(=O)O; Ala(1-bicyclo(1.1.1)pentyl) = N[C@@H](CC12CC(C1)C2)C(=O)O; dPro(4R-Bzl(4-F)) = O=C(O)[C@H]1C[C@@H](Cc2ccc(F)cc2)CN1; dPro(3S-(4-F-Bn)) = O=C(O)[C@@H]1NCC[C@@H]1Cc1ccc(F)cc1; X19 = O=C([C@H]1C[C@@H](Cc2ccc(Br)cc2)CN1[*:1])[*:2]; X12 = Cn1ccnc1-c1ccc(C[C@H](N[*:1])C(=O)[*:2])cc1; X13 = O=C(O)c1ccc(C[C@H](N[*:1])C(=O)[*:2])cc1Cl; Ala(pyrimidin-5-yl) = N[C@@H](Cc1cncnc1)C(=O)O; Phe(4-COOH) = N[C@@H](Cc1ccc(C(=O)O)cc1)C(=O)O; Pro(cis-4-F) = O=C(O)[C@@H]1C[C@H](F)CN1; Ala(4-THP) = N[C@@H](CC1CCOCC1)C(=O)O; X6 = O=C([C@H](Cc1ccncn1)N[*:1])[*:2]; d(αMeF) = C[C@@](N)(Cc1ccccc1)C(=O)O; AEF = NCCOc1ccc(C[C@H](N)C(=O)O)cc1; cisHyp = O=C(O)[C@@H]1C[C@H](O)CN1; d(αMeD) = C[C@@](N)(CC(=O)O)C(=O)O; 4Pal = N[C@@H](Cc1ccncc1)C(=O)O; d(αMeS) = C[C@@](N)(CO)C(=O)O; Cba = N[C@@H](CC1CCC1)C(=O)O; Dab = NCC[C@H](N)C(=O)O; Nva = CCC[C@H](N)C(=O)O; Aib = CC(C)(N)C(=O)O

Target: T1, IL-1β (Homo sapiens, UniProt P01584)
T1 construct: purchased BioLegend 579404
T1 sequence (P01584 117-269): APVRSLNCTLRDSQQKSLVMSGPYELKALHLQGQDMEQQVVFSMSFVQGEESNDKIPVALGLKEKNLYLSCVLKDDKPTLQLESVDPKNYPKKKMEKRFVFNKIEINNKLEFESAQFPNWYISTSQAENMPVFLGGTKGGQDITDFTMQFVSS
Assay: IL-6 assay in MRC5 cells: inhibition of IL-1β induced IL-6 secretion (AlphaLISA)
Format: cell-based
Details: inhibition of IL-1β induced IL-6 secretion in MRC5 cells, read-out: MRC5 IC50
Outline: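 Compound was pre-incubated 1 h at ambient temperature with recombinant human IL-1β at 2λ EC80 before adding human lung fibroblast MRC5 cells (3000/well) in EMEM with 0.025% BSA. After overnight culture at 37 °C, 5% CO2, secreted IL-6 in conditioned medium was measured by AlphaLISA; IC50 from 4-parameter logistic fits.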

[1] = compound pre-incubated 1 hour with recombinant human IL-1β

SMILES	IC50	IC50 [1]
C[C@@H](c1c[nH]c2cccc(F)c12)[C@@H]1NC(=O)[C@@H]2C[C@H](F)CN2C(=O)CNC(=O)[C@H](Cc2ccc(C(=O)O)cc2)NC(=O)[C@H](Cc2ccncc2)NC(=O)[C@H](Cc2ccc([C@H]3CC[C@H](C(=O)O)CC3)cc2)NC(=O)[C@H]2C[C@@H](Cc3ccc(F)cc3)CN2C(=O)CNC(=O)[C@H](CCN)NC(=O)[C@H](CCC(N)=O)NC(=O)[C@H](Cc2cncnc2)NC(=O)C2(CNC2)NC(=O)[C@H](Cc2c[nH]c3ccccc23)NC(=O)[C@H](CCC(=O)O)NC(=O)C(C)(C)NC1=O [Example 68] (cyclo([Phe(4-(trans-4-COOH-cHex))][4Pal][Phe(4-COOH)]G[Pro(cis-4-F)][Trp(βS-Me,4-F)][Aib]EW[3Aminoazetidine3carboxyl][Ala(pyrimidin-5-yl)]Q[Dab]G[dPro(4R-Bzl(4-F))]))	0.029 nM	–
C[C@@H](c1c[nH]c2cccc(F)c12)[C@@H]1NC(=O)[C@@H]2C[C@H](F)CN2C(=O)CNC(=O)[C@H](Cc2ccc(C(=O)O)cc2)NC(=O)[C@H](Cc2ccncc2)NC(=O)[C@H](Cc2ccc(-c3ccc(C(=O)O)cc3)cc2)NC(=O)[C@H]2C[C@@H](Cc3ccc(F)cc3)CN2C(=O)CNC(=O)[C@H](CO)NC(=O)[C@H](CCC(N)=O)NC(=O)[C@H](Cc2cncnc2)NC(=O)C(C)(C)NC(=O)[C@H](Cc2c[nH]c3ccccc23)NC(=O)[C@H](CCC(=O)O)NC(=O)C(C)(C)NC1=O [Example 3] (cyclo([Bip(4'-COOH)][4Pal][Phe(4-COOH)]G[Pro(cis-4-F)][Trp(βS-Me,4-F)][Aib]EW[Aib][Ala(pyrimidin-5-yl)]QSG[dPro(4R-Bzl(4-F))]))	0.037 nM	–
C[C@@H](c1c[nH]c2cccc(F)c12)[C@@H]1NC(=O)[C@@H]2C[C@H](F)CN2C(=O)CNC(=O)[C@H](Cc2ccc(C(=O)O)cc2)NC(=O)[C@H](Cc2ccncc2)NC(=O)[C@H](Cc2ccc(-c3ccc(C(=O)O)cc3)cc2)NC(=O)[C@H]2C[C@@H](Cc3ccncc3)CN2C(=O)CNC(=O)[C@H](CCN)NC(=O)[C@H](CCC(N)=O)NC(=O)[C@H](CCC(=O)O)NC(=O)[C@@](C)(Cc2ccccc2)NC(=O)[C@H](Cc2c[nH]c3ccccc23)NC(=O)[C@H](CO)NC(=O)C(C)(C)NC1=O [Example 258] (cyclo([Bip(4'-COOH)][4Pal][Phe(4-COOH)]G[Pro(cis-4-F)][Trp(βS-Me,4-F)][Aib]SW[d(αMeF)]EQ[Dab]G[dPro(4R-(4-pyridylmethyl))]))	–	0.02 nM
CCC[C@@H]1NC(=O)[C@@](C)(CC(=O)O)NC(=O)[C@H](Cc2c[nH]c3ccccc23)NC(=O)[C@H](CO)NC(=O)C(C)(C)NC(=O)[C@H]([C@@H](C)c2c[nH]c3cccc(F)c23)NC(=O)[C@@H]2C[C@H](F)CN2C(=O)CNC(=O)[C@H](Cc2ccc(C(=O)O)cc2)NC(=O)[C@H](Cc2ccncc2)NC(=O)[C@H](Cc2ccc(-c3ccc(C(=O)O)cc3)cc2)NC(=O)[C@H]2C[C@@H](Cc3ccncc3)CN2C(=O)CNC(=O)[C@H](CCN)NC(=O)[C@H](CCC(N)=O)NC1=O [Example 253] (cyclo([Bip(4'-COOH)][4Pal][Phe(4-COOH)]G[Pro(cis-4-F)][Trp(βS-Me,4-F)][Aib]SW[d(αMeD)][Nva]Q[Dab]G[dPro(4R-(4-pyridylmethyl))]))	–	0.013 nM
C[C@@H](c1c[nH]c2cccc(F)c12)[C@@H]1NC(=O)[C@@H]2C[C@H](F)CN2C(=O)CNC(=O)[C@H](Cc2ccc(C(=O)O)c(Cl)c2)NC(=O)[C@H](Cc2ccncc2)NC(=O)[C@H](Cc2ccc(-c3ncc(C(=O)O)cn3)cc2)NC(=O)[C@H]2C[C@@H](Cc3ccncc3)CN2C(=O)CNC(=O)[C@H](CCN)NC(=O)[C@H](CCC(N)=O)NC(=O)[C@H](CC2CCOCC2)NC(=O)[C@@](C)(CC(=O)O)NC(=O)[C@H](Cc2c[nH]c3ccccc23)NC(=O)[C@H](CO)NC(=O)C(C)(C)NC1=O [Example 361] (cyclo([Phe(4-(5-CO2H-2-pyrimidyl))][4Pal][X13]G[Pro(cis-4-F)][Trp(βS-Me,4-F)][Aib]SW[d(αMeD)][Ala(4-THP)]Q[Dab]G[dPro(4R-(4-pyridylmethyl))]))	0.022 nM	–
C[C@@H](c1c[nH]c2cccc(F)c12)[C@@H]1NC(=O)[C@@H]2C[C@H](F)CN2C(=O)CNC(=O)[C@H](Cc2ccc(C(=O)O)cc2)NC(=O)[C@H](Cc2ccncc2)NC(=O)[C@H](Cc2ccc(-c3ccc(C(=O)O)cc3)cc2)NC(=O)[C@H]2C[C@@H](Cc3ccc(Br)cc3)CN2C(=O)CNC(=O)[C@H](CCN)NC(=O)[C@H](CCC(N)=O)NC(=O)[C@H](Cc2cncnc2)NC(=O)C(C)(C)NC(=O)[C@H](Cc2c[nH]c3ccccc23)NC(=O)[C@H](CCC(=O)O)NC(=O)C(C)(C)NC1=O [Example 143] (cyclo([Bip(4'-COOH)][4Pal][Phe(4-COOH)]G[Pro(cis-4-F)][Trp(βS-Me,4-F)][Aib]EW[Aib][Ala(pyrimidin-5-yl)]Q[Dab]G[X19]))	0.026 nM	–
C[C@@H](c1c[nH]c2cccc(F)c12)[C@@H]1NC(=O)[C@@H]2C[C@H](F)CN2C(=O)CNC(=O)[C@H](Cc2ccc(C(=O)O)cc2)NC(=O)[C@H](Cc2ccncc2)NC(=O)[C@H](Cc2ccc(-c3ccc(C(=O)O)cc3)cc2)NC(=O)[C@H]2C[C@@H](Cc3ccc(F)cc3)CN2C(=O)CNC(=O)[C@H](CCN)NC(=O)[C@H](CCC(N)=O)NC(=O)[C@H](Cc2ccncn2)NC(=O)[C@@](C)(CC(=O)O)NC(=O)[C@H](Cc2c[nH]c3ccccc23)NC(=O)[C@H](CO)NC(=O)C(C)(C)NC1=O [Example 332] (cyclo([Bip(4'-COOH)][4Pal][Phe(4-COOH)]G[Pro(cis-4-F)][Trp(βS-Me,4-F)][Aib]SW[d(αMeD)][X6]Q[Dab]G[dPro(4R-Bzl(4-F))]))	0.013 nM	–
CC(=O)NCCOc1ccc(C[C@@H]2NC(=O)[C@H]3C[C@@H](Cc4ccncc4)CN3C(=O)CNC(=O)[C@H](CCN)NC(=O)[C@H](CCC(N)=O)NC(=O)[C@H](Cc3cncnc3)NC(=O)C(C)(C)NC(=O)[C@H](Cc3c[nH]c4ccccc34)NC(=O)[C@H](CO)NC(=O)C(C)(C)NC(=O)[C@H]([C@@H](C)c3c[nH]c4cccc(F)c34)NC(=O)[C@@H]3C[C@H](F)CN3C(=O)CNC(=O)[C@H](Cc3ccc(C(=O)O)cc3)NC(=O)[C@H](Cc3ccncc3)NC2=O)cc1 [Example 368] (cyclo([AEF](Ac)[4Pal][Phe(4-COOH)]G[Pro(cis-4-F)][Trp(βS-Me,4-F)][Aib]SW[Aib][Ala(pyrimidin-5-yl)]Q[Dab]G[dPro(4R-(4-pyridylmethyl))]))	0.022 nM	–
C[C@@H](c1c[nH]c2cccc(F)c12)[C@@H]1NC(=O)[C@@H]2C[C@H](F)CN2C(=O)CNC(=O)[C@H](Cc2ccc(C(=O)O)cc2)NC(=O)[C@H](CC23CC(C2)C3)NC(=O)[C@H](Cc2ccc(-c3ccc(C(=O)O)cc3)cc2)NC(=O)[C@H]2C[C@@H](Cc3ccncc3)CN2C(=O)CNC(=O)[C@H](CCN)NC(=O)[C@H](CCC(N)=O)NC(=O)[C@H](CC2CCOCC2)NC(=O)[C@@](C)(CO)NC(=O)[C@H](Cc2c[nH]c3ccccc23)NC(=O)[C@H](CO)NC(=O)C(C)(C)NC1=O [Example 204] (cyclo([Bip(4'-COOH)][Ala(1-bicyclo(1.1.1)pentyl)][Phe(4-COOH)]G[Pro(cis-4-F)][Trp(βS-Me,4-F)][Aib]SW[d(αMeS)][Ala(4-THP)]Q[Dab]G[dPro(4R-(4-pyridylmethyl))]))	0.017 nM	–
C[C@@H](c1c[nH]c2cccc(F)c12)[C@@H]1NC(=O)[C@@H]2C[C@H](O)CN2C(=O)CNC(=O)[C@H](Cc2ccc(C(=O)O)cc2)NC(=O)[C@H](CC2CCC2)NC(=O)[C@H](Cc2ccc(-c3ccc(C(=O)O)cc3)cc2)NC(=O)[C@H]2C[C@@H](Cc3ccncc3)CN2C(=O)CNC(=O)[C@H](CCN)NC(=O)[C@H](CCC(N)=O)NC(=O)[C@H](Cc2cncnc2)NC(=O)[C@@](C)(CC(=O)O)NC(=O)[C@H](Cc2c[nH]c3ccccc23)NC(=O)[C@H](CO)NC(=O)C(C)(C)NC1=O [Example 164] (cyclo([Bip(4'-COOH)][Cba][Phe(4-COOH)]G[cisHyp][Trp(βS-Me,4-F)][Aib]SW[d(αMeD)][Ala(pyrimidin-5-yl)]Q[Dab]G[dPro(4R-(4-pyridylmethyl))]))	0.039 nM	–
C[C@@H](c1c[nH]c2cccc(F)c12)[C@@H]1NC(=O)[C@@H]2C[C@H](F)CN2C(=O)CNC(=O)[C@H](Cc2ccc(C(=O)O)cc2)NC(=O)[C@H](Cc2ccncc2)NC(=O)[C@H](Cc2ccc(-c3nccn3C)cc2)NC(=O)[C@H]2[C@@H](Cc3ccc(F)cc3)CCN2C(=O)CNC(=O)[C@H](CCN)NC(=O)[C@H](CCC(N)=O)NC(=O)[C@H](Cc2cncnc2)NC(=O)[C@@](C)(CC(=O)O)NC(=O)[C@H](Cc2c[nH]c3ccccc23)NC(=O)[C@H](CO)NC(=O)C(C)(C)NC1=O [Example 280] (cyclo([X12][4Pal][Phe(4-COOH)]G[Pro(cis-4-F)][Trp(βS-Me,4-F)][Aib]SW[d(αMeD)][Ala(pyrimidin-5-yl)]Q[Dab]G[dPro(3S-(4-F-Bn))]))	–	0.016 nM
C[C@@H](c1c[nH]c2cccc(F)c12)[C@@H]1NC(=O)[C@@H]2C[C@H](F)CN2C(=O)CNC(=O)[C@H](Cc2ccc(C(=O)O)cc2)NC(=O)[C@H](Cc2ccncc2)NC(=O)[C@H](Cc2ccc(-c3ccc(C(=O)O)cc3)cc2)NC(=O)[C@H]2[C@@H](Cc3ccc(F)cc3)CCN2C(=O)CNC(=O)[C@H](CCN)NC(=O)[C@H](CCC(N)=O)NC(=O)[C@H](Cc2cncnc2)NC(=O)C(C)(C)NC(=O)[C@H](Cc2c[nH]c3ccccc23)NC(=O)[C@H](CCC(=O)O)NC(=O)C(C)(C)NC1=O [Example 346] (cyclo([Bip(4'-COOH)][4Pal][Phe(4-COOH)]G[Pro(cis-4-F)][Trp(βS-Me,4-F)][Aib]EW[Aib][Ala(pyrimidin-5-yl)]Q[Dab]G[dPro(3S-(4-F-Bn))]))	0.01 nM	–
